Test results: ChEMBL document CHEMBL3124747, “Formosusin A, a novel specific inhibitor of mammalian DNA polymerase β from the fungus Paecilomyces formosus” (Bioorg Med Chem, 2014)
pIC50: −log10 of the molar value.

Experiments:
[1] = molecular target: DNA nucleotidylexotransferase (Bos taurus, UniProt P06526); assay: Inhibition of calf thymus TdT assessed as inhibition of incorporation of dTTP into oligo(dT)18(3'OH) after 60 mins
Deoxyribonuclease-1 = Deoxyribonuclease-1 (Bos taurus, UniProt P00639); assay: Inhibition of bovine deoxyribonuclease 1 assessed as inhibition of incorporation of dTTP into poly(dA)/oligo(dT)18 after 60 mins
Sequence of Deoxyribonuclease-1 (P00639 whole entry): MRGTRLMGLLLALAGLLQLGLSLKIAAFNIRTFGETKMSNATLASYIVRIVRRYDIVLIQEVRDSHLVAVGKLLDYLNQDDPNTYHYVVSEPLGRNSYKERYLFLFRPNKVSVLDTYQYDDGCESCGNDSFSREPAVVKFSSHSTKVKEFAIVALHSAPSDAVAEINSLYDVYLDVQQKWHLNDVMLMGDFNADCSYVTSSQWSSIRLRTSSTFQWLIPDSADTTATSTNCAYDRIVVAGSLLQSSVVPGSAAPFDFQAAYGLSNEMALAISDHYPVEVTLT

[2] = molecular target: Inosine-5'-monophosphate dehydrogenase 2 (Mus musculus, UniProt P24547); assay: Inhibition of mouse IMP dehydrogenase 2 assessed as inhibition of incorporation of dTTP into poly(dA)/oligo(dT)18 after 60 mins
Sequence of Inosine-5'-monophosphate dehydrogenase 2 (P24547 whole entry): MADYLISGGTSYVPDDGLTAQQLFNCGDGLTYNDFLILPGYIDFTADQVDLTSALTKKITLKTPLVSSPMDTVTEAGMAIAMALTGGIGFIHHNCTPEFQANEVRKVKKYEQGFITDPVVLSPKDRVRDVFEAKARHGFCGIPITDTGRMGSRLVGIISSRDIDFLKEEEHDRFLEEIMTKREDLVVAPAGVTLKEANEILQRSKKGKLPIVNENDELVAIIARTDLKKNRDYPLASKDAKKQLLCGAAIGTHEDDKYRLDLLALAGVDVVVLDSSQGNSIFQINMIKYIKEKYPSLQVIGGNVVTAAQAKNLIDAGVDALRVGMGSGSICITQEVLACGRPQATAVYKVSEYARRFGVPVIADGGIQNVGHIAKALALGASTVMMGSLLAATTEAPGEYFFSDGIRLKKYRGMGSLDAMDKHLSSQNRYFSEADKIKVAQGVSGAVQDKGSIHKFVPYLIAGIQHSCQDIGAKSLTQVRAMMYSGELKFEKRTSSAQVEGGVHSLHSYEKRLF

[3] = molecular target: T1, DNA polymerase delta catalytic subunit (Drosophila melanogaster, UniProt P54358); assay: Inhibition of fruit fly DNA polymerase delta assessed as inhibition of incorporation of dTTP into poly(dA)/oligo(dT)18 after 60 mins
T1 sequence (P54358 whole entry): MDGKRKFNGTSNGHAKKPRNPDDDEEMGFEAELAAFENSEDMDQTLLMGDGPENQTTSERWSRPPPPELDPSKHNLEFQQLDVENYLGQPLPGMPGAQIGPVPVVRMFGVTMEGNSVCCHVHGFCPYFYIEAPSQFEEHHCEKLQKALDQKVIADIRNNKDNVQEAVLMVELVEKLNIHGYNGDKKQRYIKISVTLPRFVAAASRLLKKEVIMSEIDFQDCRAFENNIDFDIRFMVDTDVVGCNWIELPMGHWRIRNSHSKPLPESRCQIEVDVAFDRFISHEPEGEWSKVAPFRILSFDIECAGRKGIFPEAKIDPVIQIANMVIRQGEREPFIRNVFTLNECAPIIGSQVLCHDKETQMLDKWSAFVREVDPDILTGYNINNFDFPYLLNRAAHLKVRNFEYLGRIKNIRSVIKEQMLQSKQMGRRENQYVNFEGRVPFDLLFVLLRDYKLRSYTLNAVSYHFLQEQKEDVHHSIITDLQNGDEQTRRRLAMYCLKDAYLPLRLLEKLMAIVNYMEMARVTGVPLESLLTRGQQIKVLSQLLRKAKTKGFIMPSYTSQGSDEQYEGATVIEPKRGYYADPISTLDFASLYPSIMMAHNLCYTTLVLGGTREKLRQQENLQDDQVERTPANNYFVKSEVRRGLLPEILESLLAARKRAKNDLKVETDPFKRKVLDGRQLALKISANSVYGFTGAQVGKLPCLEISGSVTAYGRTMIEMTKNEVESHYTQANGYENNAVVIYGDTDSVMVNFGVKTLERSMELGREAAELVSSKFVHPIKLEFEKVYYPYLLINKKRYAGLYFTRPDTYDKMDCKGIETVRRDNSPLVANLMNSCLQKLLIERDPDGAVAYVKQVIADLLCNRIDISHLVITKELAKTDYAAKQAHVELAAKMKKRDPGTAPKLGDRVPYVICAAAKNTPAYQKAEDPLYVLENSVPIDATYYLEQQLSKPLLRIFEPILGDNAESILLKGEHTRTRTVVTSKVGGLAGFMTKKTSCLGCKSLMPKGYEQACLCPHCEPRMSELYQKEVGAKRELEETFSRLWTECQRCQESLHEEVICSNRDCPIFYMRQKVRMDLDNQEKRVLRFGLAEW

[4] = molecular target: T2, DNA polymerase delta catalytic subunit (Homo sapiens, UniProt P28340); assay: Inhibition of DNA polymerase delta isolated from human MOLT4 cells assessed as inhibition of incorporation of dTTP into poly(dA)/oligo(dT)18 after 60 mins; assay type: cell-free, MOLT-4
T2 sequence (P28340 whole entry): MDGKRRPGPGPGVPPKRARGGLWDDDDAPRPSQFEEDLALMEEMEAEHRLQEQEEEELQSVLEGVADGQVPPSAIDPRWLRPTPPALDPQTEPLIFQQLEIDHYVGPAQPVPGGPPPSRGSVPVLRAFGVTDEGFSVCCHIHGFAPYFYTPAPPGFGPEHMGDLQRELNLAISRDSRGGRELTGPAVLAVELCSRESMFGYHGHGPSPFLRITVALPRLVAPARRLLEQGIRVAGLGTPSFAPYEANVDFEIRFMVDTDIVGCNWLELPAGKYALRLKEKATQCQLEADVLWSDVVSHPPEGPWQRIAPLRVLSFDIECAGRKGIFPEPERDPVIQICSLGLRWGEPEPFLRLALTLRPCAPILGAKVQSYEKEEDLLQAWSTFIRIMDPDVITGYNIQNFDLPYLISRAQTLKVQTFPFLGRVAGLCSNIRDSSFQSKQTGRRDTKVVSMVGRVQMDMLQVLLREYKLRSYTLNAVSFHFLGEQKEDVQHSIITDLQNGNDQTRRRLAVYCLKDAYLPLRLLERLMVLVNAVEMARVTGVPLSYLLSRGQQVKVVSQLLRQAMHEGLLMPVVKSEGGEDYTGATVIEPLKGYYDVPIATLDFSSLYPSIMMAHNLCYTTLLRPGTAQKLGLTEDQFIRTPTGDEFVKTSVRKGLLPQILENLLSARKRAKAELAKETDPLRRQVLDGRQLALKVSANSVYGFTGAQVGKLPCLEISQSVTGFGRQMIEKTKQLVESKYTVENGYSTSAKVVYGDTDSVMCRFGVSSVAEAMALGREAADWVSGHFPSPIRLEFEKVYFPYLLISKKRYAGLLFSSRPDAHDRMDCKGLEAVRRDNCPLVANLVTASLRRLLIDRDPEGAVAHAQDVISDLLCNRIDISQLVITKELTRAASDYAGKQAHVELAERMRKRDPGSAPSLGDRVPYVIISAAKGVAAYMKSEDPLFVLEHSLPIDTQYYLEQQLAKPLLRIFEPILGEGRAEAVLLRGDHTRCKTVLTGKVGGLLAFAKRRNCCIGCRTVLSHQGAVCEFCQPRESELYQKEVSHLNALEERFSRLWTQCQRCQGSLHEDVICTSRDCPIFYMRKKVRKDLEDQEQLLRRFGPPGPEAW

DNA polymerase beta = DNA polymerase beta (Rattus norvegicus, UniProt P06766); assay: Inhibition of recombinant rat DNA polymerase beta expressed in Escherichia coli JMpbeta5 assessed as inhibition of incorporation of dTTP into poly(dA)/oligo(dT)18 after 60 mins
[5] = Inhibition of human His-tagged DNA polymerase gamma expressed in baculovirus assessed as inhibition of incorporation of dTTP into poly(dA)/oligo(dT)18 after 60 mins

Sequence of DNA nucleotidylexotransferase (P06526 whole entry): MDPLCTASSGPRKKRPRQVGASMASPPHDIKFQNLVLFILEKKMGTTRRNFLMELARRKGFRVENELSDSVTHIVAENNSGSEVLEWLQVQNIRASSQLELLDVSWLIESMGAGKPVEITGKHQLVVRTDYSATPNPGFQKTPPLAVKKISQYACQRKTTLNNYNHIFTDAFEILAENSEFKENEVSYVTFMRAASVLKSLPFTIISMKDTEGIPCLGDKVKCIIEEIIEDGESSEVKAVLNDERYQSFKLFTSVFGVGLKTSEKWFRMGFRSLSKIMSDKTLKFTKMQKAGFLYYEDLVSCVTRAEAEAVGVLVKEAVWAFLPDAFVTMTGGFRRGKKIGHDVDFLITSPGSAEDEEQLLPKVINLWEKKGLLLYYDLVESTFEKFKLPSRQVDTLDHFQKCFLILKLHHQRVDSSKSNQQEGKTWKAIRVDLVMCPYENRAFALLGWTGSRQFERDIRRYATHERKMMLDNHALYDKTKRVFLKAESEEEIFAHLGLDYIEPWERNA

| Structure (SMILES) | pIC50 [1] | pIC50 (Deoxyribonuclease-1) | pIC50 [2] | pIC50 [3] | pIC50 [4] | pIC50 (DNA polymerase beta) | pIC50 [5] |
| --- | --- | --- | --- | --- | --- | --- | --- |
| CC(/C=C/CCC(=O)N1CCCC1=O)=C\C1CCCCO1 (stereo not drawn) | < 3.70 | < 3.70 | < 3.70 | < 3.70 | < 3.70 | < 3.70 | < 3.70 |
| CCCC[C@@H](O)/C=C(C)/C=C/C=C/C(=O)N1CCCC1=O [PECILOCIN] | < 3.70 | < 3.70 | < 3.70 | < 3.70 | < 3.70 | < 3.70 | < 3.70 |
| CCCC[C@@H](O)/C=C(C)/C=C/C=C\C(=O)N1CCCC1=O | < 3.70 | < 3.70 | < 3.70 | < 3.70 | < 3.70 | 4.45 | < 3.70 |
| CCCCC(=O)/C=C(C)/C=C/CCC(=O)N1CCCC1=O | < 3.70 | < 3.70 | < 3.70 | < 3.70 | < 3.70 | < 3.70 | < 3.70 |
